From patent US7563621B2, “Absorbing organic reagents into diagnostic test devices by formation of amine salt complexes” (Siemens Healhcare Diagnostics Inc, priority 2003, dated 2009) come the findings set out here.

The nature of data set [1]: Butanol/water partitioning of pyrogallol red dye salts (Example 3). In kind it is physicochemical. Conditions: 276 nm; for Absorbance of Dye Salt in Butanol: butanol layer; for Absorbance of Dye Salt in Water: water layer. Here is the method:
Extractions were then performed in Mixxor extractors.

The subject of data set [2] is Lambda Light Chain. Kind of data set: Automated protein assay with pyrogallol red salts, 54 μM (Example 5). The note with it: Lambda Light Chain 25 mg/dL, 10 minutes, averaged data. Here is the method: (§1) The dilutor was programmed for reactions of 180 μL reagent+40 μL sample. […] The samples were phosphate buffered saline (blank), human serum albumin (HSA) 25 mg/dL, and other proteins (i.e., human IgG, […], and Lambda Light Chain) at 25 mg/dL. Absorbance rate data were collected on a Biotek, Powerwave X Microplate Absorbance reader using BioTek “KC Jr” software to determine the relative detection of the different proteins (i.e., HSA, human IgG, […], and Lambda Light Chain) using salts of pyrogallol red. Two sets of replicates of the different proteins were run. […] The protein response was determined by subtracting the phosphate buffered saline sample reaction result from the protein reaction result.

For data set [3], the target named is T1, Tamm-Horsfall (Homo sapiens, UniProt P07911). The data set is described as above. The note with it: 10 minutes; for 600 nm Absorbance Level, salt with Protein / 900 nm Absorbance Background Level, salt with Protein / Reaction Absorbance at 600 nm − Absorbance at 900 nm (net protein response, protein minus non-protein sample): Tamm-Horsfall 25 mg/dL; for 600 nm Absorbance Level, salt with Protein / 900 nm Absorbance Background Level, salt with Protein / 600 nm Absorbance Level, salt in Phosphate Buffered Saline (No Protein) / 900 nm Absorbance Background Level, salt in Phosphate Buffered Saline (No Protein): 37° C, replicates #1 and #2; for Reaction Absorbance at 600 nm − Absorbance at 900 nm (net protein response, protein minus non-protein sample): averaged data; for 600 nm Absorbance Level, salt in Phosphate Buffered Saline (No Protein) / 900 nm Absorbance Background Level, salt in Phosphate Buffered Saline (No Protein): Tamm-Horsfall. Here is the method:
as §1

Data set [4] concerns human IgG. The description is as above. The note with it: IgG 25 mg/dL, 10 minutes, averaged data. How it is done: as §1
In data set [5] the target is T2, human serum albumin (HSA) (Homo sapiens, UniProt P02768). The description is as above. Conditions: 10 minutes; for 600 nm Absorbance Level, salt with Protein / 900 nm Absorbance Background Level, salt with Protein / Reaction Absorbance at 600 nm − Absorbance at 900 nm (net protein response, protein minus non-protein sample): HSA 25 mg/dL; for 600 nm Absorbance Level, salt with Protein / 900 nm Absorbance Background Level, salt with Protein / 600 nm Absorbance Level, salt in Phosphate Buffered Saline (No Protein) / 900 nm Absorbance Background Level, salt in Phosphate Buffered Saline (No Protein): 37° C, replicates #1 and #2; for Reaction Absorbance at 600 nm − Absorbance at 900 nm (net protein response, protein minus non-protein sample): averaged data; for 600 nm Absorbance Level, salt in Phosphate Buffered Saline (No Protein) / 900 nm Absorbance Background Level, salt in Phosphate Buffered Saline (No Protein): HSA. How it is done:
as §1

Data set [6] concerns the target T2, human serum albumin (HSA). Kind of data set: Automated protein assay with pyrogallol red salts, 74 μM (Example 6). The note with it: HSA 25 mg/dL; 10 minutes, 37° C; 900 nm baseline subtracted; Series #1 and #2. Here is the method: The dilutor was programmed for reactions of 180 μL reagent+40 μL sample. […] The samples were phosphate buffered saline (blank), human serum albumin (HSA) 25 mg/dL, and other proteins (i.e., human IgG, […], and Lambda Light Chain) at 25 mg/dL. Absorbance data were collected on a Biotek, Powerwave X Microplate Absorbance reader using BioTek “KC Jr” software to determine the relative detection of the different proteins (i.e., HSA, human IgG, […], and Lambda Light Chain) using salts of pyrogallol red. Two sets of replicates of the different proteins were run. […] The protein response was determined by subtracting the phosphate buffered saline sample reaction result from the protein reaction result.

Data set [7] deals with Lambda Light Chain. The data set is described as above. The note with it: Series #1 and #2; for average net absorbance at 600 nm after subtracting PBS sample reaction result: Lambda Light Chain 25 mg/dL, 10 minutes, 37° C, 900 nm baseline subtracted; for Percent Detection as Percentage of HSA Detection: Lambda Light Chain. How it is done:
(§2) The dilutor was programmed for reactions of 180 μL reagent+40 μL sample. […] The samples were phosphate buffered saline (blank), human serum albumin (HSA) 25 mg/dL, and other proteins (i.e., human IgG, […], and Lambda Light Chain) at 25 mg/dL. Absorbance data were collected on a Biotek, Powerwave X Microplate Absorbance reader using BioTek “KC Jr” software to determine the relative detection of the different proteins (i.e., HSA, human IgG, […], and Lambda Light Chain) using salts of pyrogallol red. Two sets of replicates of the different proteins were run. […] The protein response was determined by subtracting the phosphate buffered saline sample reaction result from the protein reaction result. […] The results for protein equivalence of the non-albumin proteins were expressed as a percentage of the protein colorimetric response to HSA as shown in Table 11 below.

Data set [8] concerns the target T1, Tamm-Horsfall. The data set is described as above. The note with it: Series #1 and #2; for average net absorbance at 600 nm after subtracting PBS sample reaction result: Tamm-Horsfall 25 mg/dL, 10 minutes, 37° C, 900 nm baseline subtracted; for Percent Detection as Percentage of HSA Detection: Tamm-Horsfall. How it is done: as §2
For data set [9], the system named is human IgG. Described as above. The note with it: Series #1 and #2; for average net absorbance at 600 nm after subtracting PBS sample reaction result: IgG 25 mg/dL, 10 minutes, 37° C, 900 nm baseline subtracted; for Percent Detection as Percentage of HSA Detection: IgG. How it is done:
as §2

Where “and” joins values, the source holds several entries; their conditions need not be identical. Equal entries are not always repeated. Structures can show the parent of a compound that is named as a salt.

T2 sequence (P02768 25-609): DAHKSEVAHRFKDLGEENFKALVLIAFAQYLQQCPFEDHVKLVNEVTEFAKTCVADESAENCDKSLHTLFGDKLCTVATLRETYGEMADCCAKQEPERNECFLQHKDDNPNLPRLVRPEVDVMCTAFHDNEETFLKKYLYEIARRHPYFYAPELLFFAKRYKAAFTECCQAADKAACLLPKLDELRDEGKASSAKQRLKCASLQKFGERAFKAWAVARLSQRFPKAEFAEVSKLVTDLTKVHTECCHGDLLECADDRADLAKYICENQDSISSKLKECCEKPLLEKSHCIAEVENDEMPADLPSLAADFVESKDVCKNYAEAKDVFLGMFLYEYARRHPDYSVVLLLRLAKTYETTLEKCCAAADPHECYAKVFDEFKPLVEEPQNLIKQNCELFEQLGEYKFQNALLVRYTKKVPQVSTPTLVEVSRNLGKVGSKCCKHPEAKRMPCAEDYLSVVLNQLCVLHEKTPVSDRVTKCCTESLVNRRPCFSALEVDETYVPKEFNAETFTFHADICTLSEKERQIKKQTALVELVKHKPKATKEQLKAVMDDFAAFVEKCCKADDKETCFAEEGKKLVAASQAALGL

With `O=c1ccc2c(-c3ccccc3S(=O)(=O)O)c3ccc(O)c(O)c3oc-2c1O` [Trioctylamine Pyrogallol Red Salt, pyrogallol red], in [1] (Trioctylamine), the “Ratio of Butanol Absorbance to Water Absorbance” value (“Ratio of Butanol Absorbance” for short) is recorded as 3.17, the “Absorbance of Dye Salt in Butanol” value worked out at 0.155 and the “Absorbance of Dye Salt in Water” value turned out to be 0.049. Moreover, the “Reaction Absorbance at 600 nm − Absorbance at 900 nm (net protein response, protein minus non-protein sample)” value in data set [2] (listed as Trioctylamine Salt) is listed as −0.042. Besides, in data set [3], the “600 nm Absorbance Level, salt with Protein” value was 0.454 and 0.45; the “900 nm Absorbance Background Level, salt with Protein” value is 0.085 and 0.084; the “600 nm Absorbance Level, salt in Phosphate Buffered Saline (No Protein)” value (“600 nm Absorbance Level, salt … (No Protein)” below) was 0.485 and 0.486; the “900 nm Absorbance Background Level, salt in Phosphate Buffered Saline (No Protein)” value is 0.081 and 0.082. In addition, the “Reaction Absorbance at 600 nm − Absorbance at 900 nm (net protein response, protein minus non-protein sample)” value in [3] (listed as Trioctylamine Salt) is −0.034. In addition, the “Reaction Absorbance at 600 nm − Absorbance at 900 nm (net protein response, protein minus non-protein sample)” value in data set [4] (listed as Trioctylamine Salt) was −0.011. In addition, in data set [5], the “600 nm Absorbance Level, salt with Protein” value is 0.454 and 0.464; the “900 nm Absorbance Background Level, salt with Protein” value was 0.087 and 0.088; the “600 nm Absorbance Level, salt … (No Protein)” value was 0.476 and 0.483; the “900 nm Absorbance Background Level, salt in Phosphate Buffered Saline (No Protein)” value was 0.082 and 0.081. Besides, the “Reaction Absorbance at 600 nm − Absorbance at 900 nm (net protein response, protein minus non-protein sample)” value in data set [5] (listed as Trioctylamine Salt) is −0.021.
With `O=c1ccc2c(-c3ccccc3S(=O)(=O)O)c3ccc(O)c(O)c3oc-2c1O` [Sodium Pyrogallol Red Salt, pyrogallol red, reference compound], the “Ratio of Butanol Absorbance” value in [1] (Sodium Hydroxide) was determined as 0.10. Further, the “Absorbance of Dye Salt in Butanol” value in [1] (Sodium Hydroxide) was 0.034. For the same compound, in [1] (Sodium Hydroxide), the “Absorbance of Dye Salt in Water” value was found to be 0.338. In addition, the “Reaction Absorbance at 600 nm − Absorbance at 900 nm (net protein response, protein minus non-protein sample)” value in data set [2] (listed as Sodium Salt) amounted to 0.006; in data set [3] (listed as Sodium Salt) it was 0.007; in data set [4] (listed as Sodium Salt), 0.008; in data set [5] (listed as Sodium Salt) it was 0.015. In addition, the “600 nm Absorbance Level, salt with Protein” value in data set [3] is 0.203 and 0.204; in data set [5], 0.211. In addition, the “900 nm Absorbance Background Level, salt with Protein” value stood at 0.036 in data set [3] and 0.035 in data set [5]. Besides, the “600 nm Absorbance Level, salt … (No Protein)” value in data set [3] is 0.196 and 0.198; in [5] it was 0.197 and 0.196. The “900 nm Absorbance Background Level, salt in Phosphate Buffered Saline (No Protein)” value in [3] was 0.036 and 0.035; in data set [5], 0.035. The “average net absorbance at 600 nm after subtracting PBS sample reaction result” value (from here on “average net absorbance at 600 nm”) was 0.0563 and 0.0536 in data set [6]; 0.0041 and 0.0037 in data set [7]; 0.0141 and 0.0118 in [8]; 0.0311 and 0.0318 in data set [9]. The “Percent Detection as Percentage of HSA Detection” value (shortened to “Percent Detection as Percentage”) in data set [7] was 8% and 7%; in [7] (listed as sodium) it was 8%; in [8] it was 26% and 21%; in data set [9] it was 58% and 56%.
As to `O=c1ccc2c(-c3ccccc3S(=O)(=O)O)c3ccc(O)c(O)c3oc-2c1O` [TRIS Pyrogallol Red Salt, pyrogallol red], in data set [1] (TRIS), the “Ratio of Butanol Absorbance” value stood at 0.13, the “Absorbance of Dye Salt in Butanol” value was determined as 0.041 and the “Absorbance of Dye Salt in Water” value was found to be 0.326. In data set [6], the “average net absorbance at 600 nm” value amounted to 0.0750. In data set [7], the “average net absorbance at 600 nm” value amounted to 0.0030 and the “Percent Detection as Percentage” value was 4%. Moreover, in data set [8], the “average net absorbance at 600 nm” value is given as 0.0175 and the “Percent Detection as Percentage” value turned out to be 23%. Moreover, in [9], the “average net absorbance at 600 nm” value was 0.0410 and the “Percent Detection as Percentage” value is listed as 55%.
